From ChEMBL document CHEMBL5620409, “Discovery of tetrasubstituted thiophenes as Cisd2 activators: A potential novel therapeutic option in nonalcoholic fatty liver disease” (Eur J Med Chem, 2023)
The source made the active and inactive calls. The rule behind the calls is not given here.

How the values were obtained:
[1] = molecular target: T1, CDGSH iron-sulfur domain-containing protein 2 (Homo sapiens, UniProt Q8N5K1); experiment: Activation of Cisd2 (unknown origin) transfected in HEK293 cells incubated for 24 hrs by one-glo luciferase assay; type: cell-based
T1 sequence (Q8N5K1 whole entry): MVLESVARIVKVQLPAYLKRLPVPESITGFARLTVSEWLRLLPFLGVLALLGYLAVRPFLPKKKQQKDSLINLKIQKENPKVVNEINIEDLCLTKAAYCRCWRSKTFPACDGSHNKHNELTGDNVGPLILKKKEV

[2] = Metabolic stability in mouse liver microsomes assessed as parent compound remaining at 5 uM in presence of NADPH-generating system measured for 30 mins by LC/MS analysis; type: ADME, Microsome; settings: read-out: Stability
[3] = Toxicity in heterozygous hepatocyte-specific Cisd2 knockout C57BL/6 mouse assessed as effect on body weight at 20 mg/kg, po measured for 2 weeks; type: organism-based; settings: in vivo, 336 h
[4] = Toxicity in heterozygous hepatocyte-specific Cisd2 knockout C57BL/6 mouse assessed as effect on GPT level in serum at 20 mg/kg, po administered for 2 weeks; type: organism-based; settings: in vivo, 336 h
Mus musculus [5] = experiment: Anti-NAFLD activity in heterozygous hepatocyte-specific Cisd2 knockout C57BL/6 mouse assessed as reduction in hepatic steatosis in liver at 20 mg/kg, po measured for 2 weeks by H and E staining based analysis; type: functional, organism-based
Mus musculus [6] = experiment: Anti-NAFLD activity in heterozygous hepatocyte-specific Cisd2 knockout C57BL/6 mouse assessed as reduction in ballooning degeneration of hepatocytes at 20 mg/kg, po measured for 2 weeks by H and E staining based analysis; type: functional, organism-based
[7] = Toxicity in wild type C57BL/6 mouse assessed as food intake at 20 mg/kg, po measured for 5 consecutive days; type: organism-based; settings: in vivo, 120 h, time 5 day
[8] = Toxicity in wild type C57BL/6 mouse assessed as effect on ALT level in serum at 20 mg/kg, po administered for 2 weeks; type: organism-based; settings: in vivo, 336 h
Mus musculus [9] = experiment: Anti-NAFLD activity in wild type C57BL/6 mouse assessed as fold increase in Cisd2 expression in liver at 20 mg/kg, po measured for 12 week by Western blot analysis; type: functional; settings: time 12 weeks
Mus musculus [10] = experiment: Anti-NAFLD activity in heterozygous hepatocyte-specific Cisd2 knockout C57BL/6 mouse assessed as abnormal hepatic lipid accumulation in liver at 20 mg/kg, po measured for 2 weeks; type: functional, organism-based
Mus musculus [11] = experiment: Anti-NAFLD activity in heterozygous hepatocyte-specific Cisd2 knockout C57BL/6 mouse assessed as fold increase in Cisd2 expression in liver at 20 mg/kg, po measured for 12 week by Western blot analysis; type: functional; settings: time 12 weeks
[12] = Toxicity in heterozygous hepatocyte-specific Cisd2 knockout C57BL/6 mouse assessed as effect on CRE level in serum at 20 mg/kg, po administered for 2 weeks; type: organism-based; settings: in vivo, 336 h
Mus musculus [13] = experiment: Anti-NAFLD activity in heterozygous hepatocyte-specific Cisd2 knockout C57BL/6 mouse assessed as effect on triglyceride level in serum at 20 mg/kg, po measured for 12 week; type: functional, organism-based; settings: time 12.0 weeks
[14] = Toxicity in wild type C57BL/6 mouse assessed as effect on AST level in serum at 20 mg/kg, po administered for 2 weeks; type: organism-based; settings: in vivo, 336 h
[15] = Toxicity in heterozygous hepatocyte-specific Cisd2 knockout C57BL/6 mouse assessed as effect on GOT level in serum at 20 mg/kg, po administered for 2 weeks; type: organism-based; settings: in vivo, 336 h
[16] = Toxicity in wild type C57BL/6 mouse assessed as effect on body weight at 20 mg/kg, po measured for 2 weeks; type: organism-based; settings: in vivo, 336 h
[17] = Toxicity in wild type C57BL/6 mouse assessed as effect on GOT level in serum at 20 mg/kg, po administered for 2 weeks; type: organism-based; settings: in vivo, 336 h
Mus musculus [18] = experiment: Anti-NAFLD activity in wild type C57BL/6 mouse assessed as effect on triglyceride level in serum at 20 mg/kg, po measured for 12 week; type: functional, organism-based; settings: time 12.0 weeks
[19] = Toxicity in heterozygous hepatocyte-specific Cisd2 knockout C57BL/6 mouse assessed as effect on BUN level in serum at 20 mg/kg, po administered for 2 weeks; type: organism-based; settings: in vivo, 336 h
[20] = Toxicity in wild type C57BL/6 mouse assessed as change in liver histology at 20 mg/kg, po administered for 2 weeks; type: organism-based; settings: in vivo, 336 h
[21] = Toxicity in heterozygous hepatocyte-specific Cisd2 knockout C57BL/6 mouse assessed as effect on ALT level in serum at 20 mg/kg, po administered for 2 weeks; type: organism-based; settings: in vivo, 336 h
[22] = Toxicity in wild type C57BL/6 mouse assessed as effect on GPT level in serum at 20 mg/kg, po administered for 2 weeks; type: organism-based; settings: in vivo, 336 h
Mus musculus [23] = experiment: Anti-NAFLD activity in heterozygous hepatocyte-specific Cisd2 knockout C57BL/6 mouse assessed as reduction in accumulation of fat in liver at 20 mg/kg, po measured for 2 weeks by oil red-O staining based analysis; type: functional, organism-based
[24] = Toxicity in wild type C57BL/6 mouse assessed as effect on BUN level in serum at 20 mg/kg, po administered for 2 weeks; type: organism-based; settings: in vivo, 336 h
[25] = Toxicity in wild type C57BL/6 mouse assessed as effect on CRE level in serum at 20 mg/kg, po administered for 2 weeks; type: organism-based; settings: in vivo, 336 h
[26] = Toxicity in heterozygous hepatocyte-specific Cisd2 knockout C57BL/6 mouse assessed as effect on AST level in serum at 20 mg/kg, po administered for 2 weeks; type: organism-based; settings: in vivo, 336 h

Cc1ccc(NC(=O)c2sc(N)c(C(=O)CO)c2C)c(C)c1
EC50 [1]: 809 nM

COC(=O)c1c(NC(C)=O)sc(C(=O)Nc2ccc(C)cc2C)c1C
EC50 [1]: 4440 nM

COC(=O)c1c(N)sc(C(=O)Nc2ccccc2C)c1C
remaining at 0.5 h, 5 µM [2]: 53.3%
EC50 [1]: 233 nM

COC(=O)c1c(N)sc(C(=O)Nc2ccc(OC)cc2)c1C
remaining at 0.5 h, 5 µM [2]: 73.6%
EC50 [1]: 12 nM

COC(=O)c1c(N)sc(C(=O)Nc2nccs2)c1C
remaining at 0.5 h, 5 µM [2]: 44.5%
EC50 [1]: 153 nM

CC(=O)c1c(N)sc(C(=O)Nc2ccc(C)cc2C)c1C
remaining at 0.5 h, 5 µM [2]: 0%
EC50 [1]: 164 nM

COC(=O)c1c(N)sc(C(=O)Nc2c(C)cc(C)cc2C)c1C
EC50 [1]: 1700 nM

Cc1ccc(NC(=O)c2sc(N)c(C(=O)O)c2C)c(C)c1
EC50 [1]: 296 nM

CC(=O)c1c(N)sc(C(=O)Nc2ccc(F)cc2)c1C
remaining at 0.5 h, 5 µM [2]: 49.2%
EC50 [1]: 160 nM

COC(=O)c1c(N)sc(C(=O)Nc2ccc(N(C)C)cc2)c1C
remaining at 0.5 h, 5 µM [2]: 54.7%
EC50 [1]: 35 nM

COC(=O)c1c(N)sc(C(=O)Nc2cccc(C)c2)c1C
remaining at 0.5 h, 5 µM [2]: 53.8%
EC50 [1]: 35 nM

CNc1sc(C(=O)Nc2ccc(C)cc2C)c(C)c1C(=O)OC
EC50 [1]: > 10000 nM

CC(=O)c1c(N)sc(C(=O)Nc2ccccc2)c1C
EC50 [1]: 553 nM

COC(=O)c1c(N)sc(C(=O)Nc2ccc(C(F)(F)F)cc2)c1C
EC50 [1]: 252 nM

CCOC(=O)c1c(N)sc(C(=O)Nc2ccc(C)cc2C)c1C
remaining at 0.5 h, 5 µM [2]: 60.6%
EC50 [1]: 197 nM

Cc1ccc(NC(=O)c2sc(N)c(C(N)=O)c2C)c(C)c1
EC50 [1]: 979 nM

Cc1ccc(NC(=O)c2sc(N)c(C(=O)OC(C)C)c2C)c(C)c1
EC50 [1]: 1520 nM

COC(=O)c1c(N)sc(C(=O)Nc2nc3ccccc3s2)c1C
EC50 [1]: > 10000 nM

Cc1ccc(NC(=O)c2sc(N)c(C(=O)OCc3ccccc3)c2C)c(C)c1
EC50 [1]: > 10000 nM

Cc1ccc(NC(=O)c2sc(N)c(C(=O)OC(C)(C)C)c2C)c(C)c1
EC50 [1]: 1340 nM

COC(=O)c1sccc1NC(=O)c1sc(N)c(C(=O)OC)c1C
EC50 [1]: > 10000 nM

COC(=O)c1c(N)sc(C(=O)Nc2cccc(OC)c2)c1C
remaining at 0.5 h, 5 µM [2]: 59.2%
EC50 [1]: 23 nM

COC(=O)c1c(N)sc(C(=O)Nc2ccc(C#N)cc2)c1C
remaining at 0.5 h, 5 µM [2]: 83.7%
EC50 [1]: 82 nM

COC(=O)c1c(N)sc(C(=O)Nc2ccc(O)cc2)c1C
Activity [3]: Non-Toxic
remaining at 0.5 h, 5 µM [2]: 91.8%
Activity [4]: Non-Toxic
Activity (Mus musculus [5]): Active
Activity (Mus musculus [6]): Active
Activity [7]: Non-Toxic
Activity [8]: Non-Toxic
fold change (FC) (Mus musculus [9]): 1.3
Activity (Mus musculus [10]): Active
EC50 [1]: 191 nM
fold change (FC) (Mus musculus [11]): 2
Activity [12]: Non-Toxic
Activity (Mus musculus [13]): Active
Activity [14]: Non-Toxic
Activity [15]: Non-Toxic
Activity [16]: Non-Toxic
Activity [17]: Non-Toxic
Activity (Mus musculus [18]): Active
Activity [19]: Non-Toxic
Activity [20]: Non-Toxic
Activity [21]: Non-Toxic
Activity [22]: Non-Toxic
Activity (Mus musculus [23]): Active
Activity [24]: Non-Toxic
Activity [25]: Non-Toxic
Activity [26]: Non-Toxic

COC(=O)c1c(N)sc(C(=O)Nc2ccccc2)c1C
remaining at 0.5 h, 5 µM [2]: 63.5%
EC50 [1]: 95 nM

COC(=O)c1c(N)sc(C(=O)Nc2cccnc2)c1C
EC50 [1]: 661 nM

COC(=O)c1c(N)sc(C(=O)Nc2ccc(F)cc2)c1C
Activity [3]: Non-Toxic
remaining at 0.5 h, 5 µM [2]: 84.9%
Activity [4]: Non-Toxic
Activity (Mus musculus [5]): Active
Activity (Mus musculus [6]): Active
Activity [7]: Non-Toxic
Activity [8]: Non-Toxic
fold change (FC) (Mus musculus [9]): 1.3
Activity (Mus musculus [10]): Active
EC50 [1]: 34 nM
fold change (FC) (Mus musculus [11]): 2
Activity [12]: Non-Toxic
Activity (Mus musculus [13]): Active
Activity [14]: Non-Toxic
Activity [15]: Non-Toxic
Activity [16]: Non-Toxic
Activity [17]: Non-Toxic
Activity (Mus musculus [18]): Active
Activity [19]: Non-Toxic
Activity [20]: Non-Toxic
Activity [21]: Non-Toxic
Activity [22]: Non-Toxic
Activity (Mus musculus [23]): Active
Activity [24]: Non-Toxic
Activity [25]: Non-Toxic
Activity [26]: Non-Toxic

COC(=O)c1c(N)sc(C(=O)Nc2ccccc2OC)c1C
EC50 [1]: 3070 nM

COC(=O)c1c(N)sc(C(=O)Nc2cc(OC)c(OC)c(OC)c2)c1C
EC50 [1]: 2180 nM

Cc1ccc(NC(=O)c2sc(N)c(C#N)c2C)c(C)c1
EC50 [1]: 2670 nM

COC(=O)c1c(N)sc(C(=O)Nc2ccc(C)cc2C)c1C
remaining at 0.5 h, 5 µM [2]: 27.6%
EC50 [1]: 46 nM

COC(=O)c1cc(C(=O)Nc2ccc(C)cc2C)sc1N
EC50 [1]: 2080 nM

Cc1ccc(NC(=O)c2sc(N)c(C(=O)NCC#N)c2C)c(C)c1
EC50 [1]: 1590 nM

COC(=O)c1c(N)sc(C(=O)Nc2ccc(C)cc2)c1C
remaining at 0.5 h, 5 µM [2]: 73.2%
EC50 [1]: 10 nM
